In PubChem BioAssay AID743417 (Broad Institute, 2014):
Records with an inconclusive call do not appear. The source made the active and inactive calls.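 Rule for the calls: active = compounds lowering the luciferase signal with a fitted half-maximal dose at most twice their top valid dose (cut at about 30 µM in these data); inconclusive = flat fits with moderate signal loss, or poor fits; inactive = the rest.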

Test system: Clone20 osteoblast Shn3 3'UTR firefly luciferase, 24 h
Experiment: Shn3 3'UTR reporter inhibitors, dose response, cell-based, Clone20 osteoblasts, luminescence, dry powder, set 2 (AID 743417)

Structure (SMILES) | AC50
O=C(Nc1ccc(N2CCOCC2)cc1)c1ccc(Cl)c(S(=O)(=O)N2CCCCC2)c1 | 0.81 µM
Cc1cc2cc(CN(CC3CCCO3)C(=S)Nc3ccccc3)c(=O)[nH]c2cc1C (configuration not stated) | 2.91 µM
Cc1ccc(C(C)C)cc1NC(=O)Nc1ccc([N+](=O)[O-])cc1 | 7.19 µM
COc1ccc(CNCCC(c2ccc(OC(C)C)cc2)c2ccccc2OC)cc1 (configuration not stated) | 3.86 µM
Cc1ccnc(N/C=C(/NC(=O)c2ccccc2)C(=O)N/N=C\c2ccc(F)cc2)n1 | > 70 µM (inactive)
CS(=O)(=O)c1nc(-c2ccc(Br)cc2)cc(-c2ccccc2)c1C#N | 4.72 µM
O=C(Nc1nc(-c2ccccn2)cs1)c1ccc(Cl)s1 | 0.817 µM
COc1ccc(C(=O)NCCN(C)C)c2nc3ccccc3cc12 | 5.78 µM
O=C(CN(C(=O)c1ccccc1Cl)C1CCCCC1)Nc1ccc(Cl)c([N+](=O)[O-])c1 | 5.1 µM
O=C(O)C1(Nc2ccccc2Cl)CCCC1 | 29.5 µM
COc1cccc(CNc2ncnc3cc(Cl)ccc23)c1 | 3.73 µM
O=C(c1cc(COc2cccc3cnccc23)on1)N1CCCC(CCCO)C1 (configuration not stated) | 0.519 µM
CCC(C)c1ccc(S(=O)(=O)N2CCN(C(=O)c3ccc(Cl)c(S(=O)(=O)N4CCOCC4)c3)CC2)cc1 (configuration not stated) | 5.32 µM
Cc1ccc(C)c(S(=O)(=O)Nc2ccc(-n3cnnn3)cc2)c1 | > 70 µM (inactive)
COc1ccc(C(CCNCc2ccc(OC(C)C)cc2)c2ccccc2OC)cc1 (configuration not stated) | 6.44 µM
NC(=O)CC(NC(=O)c1ccccc1)c1ccc(N2CCC(Cc3ccccc3)CC2)c([N+](=O)[O-])c1 (configuration not stated) | 2.61 µM
CC(C)C[C@@H](CO)N(Cc1ccccc1)S(=O)(=O)N(Cc1ccccc1)[C@H](CO)CC(C)C | 10.1 µM
Cc1csc(=O)n1CC(=O)OCC(=O)c1c(N)n(C)c(=O)n(C)c1=O | 27.1 µM
N#CC(c1cccc(Cl)c1)c1ccc2c(C(F)(F)F)cc(C(F)(F)F)nc2n1 (configuration not stated) | 0.689 µM
COCCN(CC(=O)NC1CCCCC1)C(=O)/C=C/C(=O)c1ccc(OC)cc1O | 2.58 µM
O=C(NCc1ccccc1C(F)(F)F)c1cccc2c1C(=O)c1ccc(N3CCC(N4CCCCC4)CC3)cc1S2(=O)=O | 21.2 µM
CN(Cc1nccs1)C(=O)c1cc(COc2cccc3cnccc23)on1 | 2.77 µM
Clc1cc2cccnc2c2ncccc12 | 4.06 µM
Cc1ccc(-c2nc(NC(=O)c3nn(C)cc3[N+](=O)[O-])sc2C)cc1C | 2.25 µM
CCN(C(=O)C1CCN(c2nc(-c3ccc(OC)cc3)no2)CC1)c1ccc(OC)cc1 | 3.17 µM
O=C(/C=C/Sc1ncn[nH]1)c1ccc(Cl)cc1 | 9.76 µM
CC(C)(C)C(=O)N1CCN(c2ccc(NC(=O)c3ccc([N+](=O)[O-])o3)cc2)CC1 | 2.45 µM
